From ChEMBL document CHEMBL1201862, “PubChem BioAssay data set” (2004)
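All cell lines were grown in 96-well plates and treated with compound for 48 hours. GI50: concentration for 50% inhibition of growth.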 Calls of active or inactive are those of the source. Cut-off read from the data, not from the text of the source: active = GI50 up to about 1.1 µM and inactive = higher.

Columns and labels:
Assay in all cases: NCI-60 cell line screen, 48 h
DLD-1 = test system: DLD-1
XF498 = test system: XF498
DMS-114 = test system: DMS-114
DMS-273 = test system: DMS-273
HOP-18 = test system: HOP-18
KM-20L2 = test system: KM-20L2
M19-MEL = test system: M19-MEL
LXFL 529 = test system: LXFL 529
RXF 631 = test system: RXF 631

SMILES | GI50 (DLD-1) | GI50 (XF498) | GI50 (DMS-114) | GI50 (DMS-273) | GI50 (HOP-18) | GI50 (KM-20L2) | GI50 (M19-MEL) | GI50 (LXFL 529) | GI50 (RXF 631)
CN(C)CCCn1c2c3ccccc3ccc2c2oc(=O)c3ccccc3c21 | 1.47 µM (inactive) | 3.85 µM (inactive) | 1.77 µM (inactive) | 1.49 µM (inactive) | 16.6 µM (inactive) | 1.39 µM (inactive) | 3.13 µM (inactive) | 3.56 µM (inactive) | 
O=C1c2cccc(NCCNCCO)c2C(=O)c2cccc(NCCNCCO)c21 | 3.18 µM (inactive) | 0.556 µM (active) | 0.368 µM (active) | 2.91 µM (inactive) | 2.15 µM (inactive) | 1.18 µM (inactive) |  | 0.643 µM (active) | 3.13 µM (inactive)
CCCCNC(=O)C1C(=O)N(CCCC)C(=O)/C1=N\N (centres undefined) |  | > 100 µM (inactive) | > 100 µM (inactive) | > 100 µM (inactive) | > 100 µM (inactive) | > 100 µM (inactive) | > 100 µM (inactive) | > 100 µM (inactive) | > 100 µM (inactive)
CC12CCCCC1(C)C2Sc1ccccc1 (centres undefined) | 61.2 µM (inactive) | 27.3 µM (inactive) | 30.7 µM (inactive) | 47.2 µM (inactive) | 63.1 µM (inactive) | > 100 µM (inactive) | 35.9 µM (inactive) | 63.8 µM (inactive) | 51.5 µM (inactive)
COc1ccc(NC(=O)C(=O)C2CNC(=O)NC2=O)c(OC)c1 (centres undefined) | > 100 µM (inactive) | > 100 µM (inactive) | > 100 µM (inactive) | > 100 µM (inactive) | > 100 µM (inactive) | > 100 µM (inactive) |  | > 100 µM (inactive) | 
NC1=NN(c2ccccc2)C(=O)C1C(=O)C(=O)Nc1ccccc1 (centres undefined) | > 100 µM (inactive) | > 100 µM (inactive) | > 100 µM (inactive) | > 100 µM (inactive) | > 100 µM (inactive) | > 100 µM (inactive) | > 100 µM (inactive) | > 100 µM (inactive) | 
C=CCCC1(C)CCCNC1=S (centres undefined) | > 100 µM (inactive) | > 100 µM (inactive) | > 100 µM (inactive) | > 100 µM (inactive) | > 100 µM (inactive) | > 100 µM (inactive) |  |  | 
COc1ccc(CC#N)c(OCc2ccccc2)c1 | 28.1 µM (inactive) |  | 30.8 µM (inactive) | 49.4 µM (inactive) | 14.2 µM (inactive) | 31.3 µM (inactive) | 29.3 µM (inactive) | 20.2 µM (inactive) | 
C[C@H](OCc1ccccc1)C(=O)N1CCS(=O)(=O)N2CCC[C@@H]2C1=O | > 100 µM (inactive) | 0.746 µM (active) | > 100 µM (inactive) |  | > 100 µM (inactive) | > 100 µM (inactive) | > 100 µM (inactive) | > 100 µM (inactive) | > 100 µM (inactive)
O=c1cc[nH]c2ccc3nn[nH]c3c12 | > 100 µM (inactive) | > 100 µM (inactive) | > 100 µM (inactive) | > 100 µM (inactive) | > 100 µM (inactive) | > 100 µM (inactive) | > 100 µM (inactive) | > 100 µM (inactive) | > 100 µM (inactive)
CCN(CC)CCNC(=O)c1ccc([N+](=O)[O-])cc1OC | > 100 µM (inactive) |  | > 100 µM (inactive) | > 100 µM (inactive) |  | > 100 µM (inactive) | > 100 µM (inactive) | > 100 µM (inactive) | 
O=C(Nc1cccc2c1[nH]c1c(-c3ccccc3)nccc12)c1ccccc1[N+](=O)[O-] |  |  |  | 4.88 µM (inactive) | > 100 µM (inactive) | 11.2 µM (inactive) |  | 25.5 µM (inactive) | 17.9 µM (inactive)
COc1c(OC(C)=O)ccc(/C=C2\N=C(C)OC2=O)c1[N+](=O)[O-] | > 100 µM (inactive) |  |  | > 100 µM (inactive) | > 100 µM (inactive) | > 100 µM (inactive) | > 100 µM (inactive) | > 100 µM (inactive) | > 100 µM (inactive)
CCN(C1=CC(=O)NC2CCCCN12)c1ccccc1 (centres undefined) | > 100 µM (inactive) | > 100 µM (inactive) | > 100 µM (inactive) | > 100 µM (inactive) | > 100 µM (inactive) | > 100 µM (inactive) | > 100 µM (inactive) | > 100 µM (inactive) | > 100 µM (inactive)
O=C(c1ccco1)N(C(=S)N1CCN(c2ccccn2)CC1)c1ccccc1 | > 100 µM (inactive) | 60.7 µM (inactive) | 66.1 µM (inactive) | > 100 µM (inactive) | > 100 µM (inactive) | > 100 µM (inactive) | > 100 µM (inactive) | > 100 µM (inactive) | 
ClC(Cl)[Si]12OCCN(CCO1)CCO2 | > 100 µM (inactive) |  | > 100 µM (inactive) | > 100 µM (inactive) | > 100 µM (inactive) |  |  | > 100 µM (inactive) | > 100 µM (inactive)
CCC(C(=O)O)c1ccc(OCc2ccccc2)cc1 (centres undefined) | > 100 µM (inactive) | > 100 µM (inactive) | > 100 µM (inactive) | > 100 µM (inactive) |  | > 100 µM (inactive) |  | > 100 µM (inactive) | 
Cc1ccc(C(=O)c2nnc(C(=O)c3ccc(C)cc3)nn2)cc1 | 43.2 µM (inactive) |  |  | 39.4 µM (inactive) | 33.4 µM (inactive) | 65.9 µM (inactive) | 26.1 µM (inactive) | 53.2 µM (inactive) | 
CC1=C(C(=O)Nc2c(C)cccc2C)C(c2ccccc2Cl)C(C(=O)Nc2c(C)cccc2C)=C(C)N1 | > 100 µM (inactive) | > 100 µM (inactive) | > 100 µM (inactive) | > 100 µM (inactive) |  | > 100 µM (inactive) | > 100 µM (inactive) | > 100 µM (inactive) | 
Cc1ccccc1NC(=O)C1C(=O)N(c2ccccc2C)C(=O)/C1=N\NC(N)=O (centres undefined) | > 100 µM (inactive) |  | > 100 µM (inactive) | > 100 µM (inactive) | 92.3 µM (inactive) | > 100 µM (inactive) | > 100 µM (inactive) | > 100 µM (inactive) | 
CCOc1ccccc1NC(=O)C1=C(C)NC(C)=C(C(=O)Nc2ccccc2OCC)C1c1ccc([N+](=O)[O-])cc1 | > 100 µM (inactive) |  | 65.9 µM (inactive) | 71.4 µM (inactive) | > 100 µM (inactive) | > 100 µM (inactive) | > 100 µM (inactive) | 70.5 µM (inactive) | > 100 µM (inactive)
O=C1NC(=S)NC(=O)C1=C(O)Nc1ccccc1 | 36.6 µM (inactive) |  | 25.8 µM (inactive) | 28.7 µM (inactive) | 42.4 µM (inactive) | 44.9 µM (inactive) | 37.2 µM (inactive) |  | 
Cn1c(-c2ccccc2)cc(-c2cccs2)c1-c1cccs1 | > 100 µM (inactive) | > 100 µM (inactive) | > 52 µM (inactive) | > 100 µM (inactive) | > 100 µM (inactive) | 47.2 µM (inactive) | 83.2 µM (inactive) |  | 
COC(=O)C1(O)CC(=O)CCC1c1ccc(OC)cc1 (centres undefined) | > 100 µM (inactive) |  | > 100 µM (inactive) | > 100 µM (inactive) | > 100 µM (inactive) | > 100 µM (inactive) |  |  | > 100 µM (inactive)
Cc1ccc(NC(=O)C(=O)CC(=O)c2c(C)[n+]([O-])c3ccccc3[n+]2[O-])cc1C |  |  |  | > 100 µM (inactive) | 48.9 µM (inactive) | 91.8 µM (inactive) | 91.2 µM (inactive) | > 100 µM (inactive) | 
O=C1c2cccc(NCCCNCCO)c2C(=O)c2cccc(NCCCNCCO)c21 | 2.34 µM (inactive) |  |  | 2.31 µM (inactive) |  | 2.75 µM (inactive) |  |  | 
COc1ccc2[nH]c(=O)cc(C)c2c1[N+](=O)[O-] | 84.1 µM (inactive) | > 100 µM (inactive) | > 100 µM (inactive) | > 100 µM (inactive) |  | > 100 µM (inactive) | > 100 µM (inactive) | > 100 µM (inactive) | > 100 µM (inactive)
CCN(CC)CCCCC1CCN(CC(=O)N2c3cc(Cl)ccc3NC(=O)CC2C)CC1 (centres undefined) | > 100 µM (inactive) |  |  | > 100 µM (inactive) | > 100 µM (inactive) | 40.9 µM (inactive) | > 100 µM (inactive) | > 100 µM (inactive) | 
